Measured values from the NIST ThermoML archive (doi:10.1016/j.fluid.2015.03.016).
Where “and” joins values, the source holds several entries; their conditions need not be identical. Equal values may be shown once.

Conditions: Liquid

CCCOC(=O)CCCCC(=O)OCCC [dipropyl hexanedioate]
Conditions | viscosity
303.14 K, 1110 kPa, Vibrating wire viscometry | 3.606 mPa·s and 3.607 mPa·s
303.14 K, 1140 kPa, Vibrating wire viscometry | 3.609 mPa·s
303.14 K, 5210 kPa, Vibrating wire viscometry | 3.78 mPa·s
303.14 K, 5220 kPa, Vibrating wire viscometry | 3.781 mPa·s and 3.776 mPa·s
303.14 K, 18280 kPa, Vibrating wire viscometry | 4.327 mPa·s
303.14 K, 18290 kPa, Vibrating wire viscometry | 4.33 mPa·s and 4.331 mPa·s
303.15 K, 2810 kPa, Vibrating wire viscometry | 3.653 mPa·s and 3.654 mPa·s
303.15 K, 2820 kPa, Vibrating wire viscometry | 3.657 mPa·s
303.15 K, 10310 kPa, Vibrating wire viscometry | 3.975 mPa·s
303.15 K, 10320 kPa, Vibrating wire viscometry | 3.972 mPa·s
303.15 K, 15230 kPa, Vibrating wire viscometry | 4.218 mPa·s
303.15 K, 15260 kPa, Vibrating wire viscometry | 4.213 mPa·s
303.15 K, 15310 kPa, Vibrating wire viscometry | 4.218 mPa·s
313.15 K, 2710 kPa, Vibrating wire viscometry | 2.934 mPa·s and 2.931 mPa·s
313.15 K, 15330 kPa, Vibrating wire viscometry | 3.354 mPa·s and 3.356 mPa·s and 3.358 mPa·s
313.15 K, 18290 kPa, Vibrating wire viscometry | 3.441 mPa·s and 3.443 mPa·s
313.16 K, 1200 kPa, Vibrating wire viscometry | 2.882 mPa·s
313.16 K, 1210 kPa, Vibrating wire viscometry | 2.879 mPa·s
313.16 K, 1220 kPa, Vibrating wire viscometry | 2.882 mPa·s
313.16 K, 2700 kPa, Vibrating wire viscometry | 2.933 mPa·s
313.16 K, 5180 kPa, Vibrating wire viscometry | 3.01 mPa·s
313.16 K, 5190 kPa, Vibrating wire viscometry | 3.016 mPa·s
313.16 K, 10460 kPa, Vibrating wire viscometry | 3.178 mPa·s
313.16 K, 10480 kPa, Vibrating wire viscometry | 3.176 mPa·s
313.16 K, 10490 kPa, Vibrating wire viscometry | 3.177 mPa·s
313.16 K, 18290 kPa, Vibrating wire viscometry | 3.445 mPa·s
313.18 K, 101.33 kPa, Capillary tube (Ostwald / Ubbelohde) method | 2.888 mPa·s
323.1 K, 101.33 kPa, Capillary tube (Ostwald / Ubbelohde) method | 2.352 mPa·s
323.15 K, 1160 kPa, Vibrating wire viscometry | 2.359 mPa·s
323.15 K, 1170 kPa, Vibrating wire viscometry | 2.356 mPa·s
323.15 K, 1180 kPa, Vibrating wire viscometry | 2.36 mPa·s
323.15 K, 15180 kPa, Vibrating wire viscometry | 2.729 mPa·s
323.16 K, 2710 kPa, Vibrating wire viscometry | 2.409 mPa·s and 2.408 mPa·s
323.16 K, 2720 kPa, Vibrating wire viscometry | 2.412 mPa·s
323.16 K, 5260 kPa, Vibrating wire viscometry | 2.464 mPa·s
323.16 K, 5270 kPa, Vibrating wire viscometry | 2.462 mPa·s
323.16 K, 15200 kPa, Vibrating wire viscometry | 2.731 mPa·s
323.17 K, 10210 kPa, Vibrating wire viscometry | 2.598 mPa·s
323.17 K, 10220 kPa, Vibrating wire viscometry | 2.597 mPa·s
323.17 K, 18240 kPa, Vibrating wire viscometry | 2.814 mPa·s
323.17 K, 18260 kPa, Vibrating wire viscometry | 2.816 mPa·s
323.17 K, 18270 kPa, Vibrating wire viscometry | 2.812 mPa·s
333.14 K, 2610 kPa, Vibrating wire viscometry | 2.006 mPa·s
333.14 K, 2620 kPa, Vibrating wire viscometry | 2.009 mPa·s
333.15 K, 2620 kPa, Vibrating wire viscometry | 2.009 mPa·s
333.15 K, 5110 kPa, Vibrating wire viscometry | 2.05 mPa·s and 2.052 mPa·s
333.15 K, 5130 kPa, Vibrating wire viscometry | 2.052 mPa·s
333.15 K, 15200 kPa, Vibrating wire viscometry | 2.274 mPa·s
333.15 K, 15220 kPa, Vibrating wire viscometry | 2.273 mPa·s
333.15 K, 18260 kPa, Vibrating wire viscometry | 2.339 mPa·s
333.15 K, 18290 kPa, Vibrating wire viscometry | 2.338 mPa·s
333.15 K, 18300 kPa, Vibrating wire viscometry | 2.343 mPa·s
333.16 K, 1090 kPa, Vibrating wire viscometry | 1.975 mPa·s
333.16 K, 1100 kPa, Vibrating wire viscometry | 1.979 mPa·s
333.16 K, 1120 kPa, Vibrating wire viscometry | 1.979 mPa·s
333.16 K, 10160 kPa, Vibrating wire viscometry | 2.167 mPa·s
333.16 K, 10180 kPa, Vibrating wire viscometry | 2.163 mPa·s
333.16 K, 10190 kPa, Vibrating wire viscometry | 2.165 mPa·s
333.16 K, 15220 kPa, Vibrating wire viscometry | 2.273 mPa·s
333.22 K, 101.33 kPa, Capillary tube (Ostwald / Ubbelohde) method | 1.97 mPa·s
